Measurements: patent US9096593B2, “Compounds and methods for kinase modulation, and indications therefor” (Plexxikon Inc., priority 2009, dated 2015)

Legend:
Flt-3 kinase = Flt-3 kinase (Homo sapiens (Human), UniProt P36888); experiment: Flt-3 kinase biochemical activity assay (AlphaScreen, biotin-(E4Y)10 phosphorylation); conditions: 100 μM ATP
Method: In one assay the biochemical activity IC50 values are determined with respect to inhibition of Flt-3 kinase activity, where inhibition of phosphorylation of a peptide substrate is measured as a function of compound concentration. Compounds to be tested, dissolved in DMSO (1 μL), are added to a white 384-well plate (Costar #3705). Working stocks of Flt-3 kinase (Invitrogen), biotin-(E4Y)10 substrate (Upstate Biotech, Cat#12-440), and ATP (Sigma, Cat#A-3377) are prepared in 25 mM Hepes pH 7.5, 5 mM MgCl2, 5 mM MnCl2, 1 mM DTT, and 0.01% Tween-20. All components are added to the 384-well plate for a final concentration of 1 ng/well Flt-3, 30 nM biotin-(E4Y)10 and 100 μM ATP in a volume of 20 μL. Each sample is at 5% DMSO. The plate is then incubated for 1 hour at room temperature. Just before use, working stocks of donor and acceptor beads from the AlphaScreen PY20 Detection Kit (PerkinElmer, Cat#676601M) are prepared in 25 mM Hepes pH 7.5, pH 7.4, 100 mM EDTA. 0.3% BSA. To stop the reaction, the plate is uncovered in the dark and 5 μL of Donor Beads solution (Streptavidin beads) is added to each well. The plate is incubated at room temperature for 20 minutes. Five microliters of Acceptor Beads solution (PY20 coated beads) are then added to each well. The final concentration of each bead is 10 μg/mL. The plates are incubated at room temperature for 60 minutes. Fluorescence signal is recorded on the Envision reader. Phosphorylated substrate results in binding of the PY20 antibody and association of the donor and acceptor beads such that signal correlates with kinase activity. The signal vs. compound concentration is used to determine the IC50.

BCR-FMS/BaF3 cells = BCR-FMS/BaF3 cells (Homo sapiens, UniProt P07333); experiment: BCR-FMS/BaF3 cell proliferation assay (ATPlite); type: cell-based; conditions: read-out: Cell based (IC50 μM) BCR/BaF3 (Fms); BCR-FMS/BaF3 cells, 3 days
Method: Compounds are assessed in a variety of cell based assays. For example BCR-FMS/BaF3, BCR-KIT/BaF3, M-NFS-60, M-07e, and BAC1.2F5 cell proliferation assays are used to assess inhibitory activity of Fms or Kit and MV-4-11 cell proliferation assay is used to assess inhibitory activity in Flt-3. […] On day 1, cells are counted, then centrifuged in a conical tube for 5 minutes at 1000 rpm. The supernatant is removed and cells are re-suspended as follows: • BCR-FMS/BaF3 and BCR-KIT/BaF3: resuspend in growth media+1 mg/mL G418 (without WEHI/IL-3) to 2×10^5 cells/mL. • M-NFS-60: resuspend in growth media +62 ng/mL murine M-CSF to 5×10^5 cells/mL. • M-07e: resuspend in growth media +200 ng/mL human SCF to 5×10^5 cells/mL. • BAC1.2F5: resuspend in growth media +36 ng/mL murine M-CSF to 1.4×10^5 cells/mL. • MV-4-11: resuspend in growth media +10% FBS to 5×10^5 cells/mL. […] On day 2, compound at a maximum concentration of 5 mM is serially diluted 1:3 for a total of 8 point titration with DMSO as a control. A 1 μL aliquot of each dilution point is added to 249 μL growth media and 50 μL is added to a well containing cells, providing 10 μM compound for the maximum concentration point. The cells are incubated for 3 days at 37° C. in 5% CO2. […] ATPlite is added to each well as follows: • BCR-FMS/BaF3 and BCR-KIT/BaF3: 25 μL per well. • M-NFS-60: 25 μL per well. • M-07c: 40 μL per well. • BAC1.2F5: 50 μL per well. • MV-4-11: 40 μL per well. The cells are incubated at room temperature for 10 minutes, then luminescence is read on Safire reader. The measured luminescence correlates directly with cell number, such that the reading as a function of compound concentration is used to determine the IC50 value.

Fms kinase = Fms kinase (Homo sapiens (Human), UniProt P07333); experiment: Fms kinase biochemical activity assay (AlphaScreen, biotin-(E4Y)10 phosphorylation); conditions: 100 μM ATP; read-out: Biochemical (IC50 μM) Fms
Method: In one assay the biochemical activity IC50 values are determined with respect to inhibition of Fms kinase activity, where inhibition of phosphorylation of a peptide substrate is measured as a function of compound concentration. Compounds to be tested, dissolved in DMSO (1 μL), are added to a white 384-well plate (Costar #3705). Working stocks of Fms kinase (Invitrogen #PV3249), biotin-(E4Y)10 substrate (Upstate Biotech, Cat#12-440), and ATP (Sigma, Cat#A-3377) are prepared in 25 mM Hepes pH 7.5, 0.5 mM MgCl2, 2 mM MnCl2, 2 mM DTT, 0.01% BSA, and 0.01% Tween-20. All components are added to the 384-well plate for a final concentration of 1 ng/well Fms, 30 nM biotin-(E4Y)10 (Upstate Biotechnology) and 100 μM ATP in a volume of 20 μL. Each sample is at 5% DMSO. The plate is then incubated for 20 minutes at 30° C. Just before use, working stocks of donor and acceptor beads from the AlphaScreen PY20 Detection Kit (PerkinElmer, Cat#676601M) are prepared in 25 mM Hepes pH 7.5, pH 7.4, 100 mM EDTA, 0.01% BSA. To stop the reaction, the plate is uncovered in the dark and 5 μL of Donor Beads solution (Streptavidin beads) is added to each well. The plate is incubated at room temperature for 20 minutes. Five microliters of Acceptor Beads solution (PY20 coated beads) are then added to each well. The final concentration of each bead is 10 μg/mL. The plates are incubated at room temperature for 60 minutes. Fluorescence signal is recorded on the Envision reader. […] The signal vs. compound concentration is used to determine the IC50.

Measured: IC50

Chain of Flt-3 kinase (P36888 27-993): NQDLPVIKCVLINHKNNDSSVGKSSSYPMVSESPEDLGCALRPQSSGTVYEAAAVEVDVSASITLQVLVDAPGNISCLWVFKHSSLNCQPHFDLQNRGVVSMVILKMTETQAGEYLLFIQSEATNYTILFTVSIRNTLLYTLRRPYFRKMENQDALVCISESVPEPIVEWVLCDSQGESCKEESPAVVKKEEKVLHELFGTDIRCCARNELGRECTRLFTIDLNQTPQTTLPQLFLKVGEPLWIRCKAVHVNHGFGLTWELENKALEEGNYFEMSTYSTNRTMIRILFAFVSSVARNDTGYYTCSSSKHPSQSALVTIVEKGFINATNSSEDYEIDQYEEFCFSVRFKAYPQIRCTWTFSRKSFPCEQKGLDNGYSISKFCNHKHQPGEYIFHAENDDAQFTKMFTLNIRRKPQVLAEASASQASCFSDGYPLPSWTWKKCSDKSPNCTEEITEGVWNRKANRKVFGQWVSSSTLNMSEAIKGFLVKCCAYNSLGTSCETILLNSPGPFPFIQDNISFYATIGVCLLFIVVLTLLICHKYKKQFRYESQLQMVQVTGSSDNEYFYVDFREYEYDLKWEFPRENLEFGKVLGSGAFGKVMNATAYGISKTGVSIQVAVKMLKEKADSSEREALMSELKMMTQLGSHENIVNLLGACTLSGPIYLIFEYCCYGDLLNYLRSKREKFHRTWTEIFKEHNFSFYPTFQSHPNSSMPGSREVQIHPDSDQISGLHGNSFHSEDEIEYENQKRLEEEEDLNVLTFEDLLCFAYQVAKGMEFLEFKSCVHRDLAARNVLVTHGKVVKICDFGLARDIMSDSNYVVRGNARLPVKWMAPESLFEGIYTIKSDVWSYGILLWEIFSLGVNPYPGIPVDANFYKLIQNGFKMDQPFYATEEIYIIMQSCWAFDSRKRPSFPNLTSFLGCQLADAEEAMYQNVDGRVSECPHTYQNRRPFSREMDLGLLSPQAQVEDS
Chain of Fms kinase (P07333 20-972): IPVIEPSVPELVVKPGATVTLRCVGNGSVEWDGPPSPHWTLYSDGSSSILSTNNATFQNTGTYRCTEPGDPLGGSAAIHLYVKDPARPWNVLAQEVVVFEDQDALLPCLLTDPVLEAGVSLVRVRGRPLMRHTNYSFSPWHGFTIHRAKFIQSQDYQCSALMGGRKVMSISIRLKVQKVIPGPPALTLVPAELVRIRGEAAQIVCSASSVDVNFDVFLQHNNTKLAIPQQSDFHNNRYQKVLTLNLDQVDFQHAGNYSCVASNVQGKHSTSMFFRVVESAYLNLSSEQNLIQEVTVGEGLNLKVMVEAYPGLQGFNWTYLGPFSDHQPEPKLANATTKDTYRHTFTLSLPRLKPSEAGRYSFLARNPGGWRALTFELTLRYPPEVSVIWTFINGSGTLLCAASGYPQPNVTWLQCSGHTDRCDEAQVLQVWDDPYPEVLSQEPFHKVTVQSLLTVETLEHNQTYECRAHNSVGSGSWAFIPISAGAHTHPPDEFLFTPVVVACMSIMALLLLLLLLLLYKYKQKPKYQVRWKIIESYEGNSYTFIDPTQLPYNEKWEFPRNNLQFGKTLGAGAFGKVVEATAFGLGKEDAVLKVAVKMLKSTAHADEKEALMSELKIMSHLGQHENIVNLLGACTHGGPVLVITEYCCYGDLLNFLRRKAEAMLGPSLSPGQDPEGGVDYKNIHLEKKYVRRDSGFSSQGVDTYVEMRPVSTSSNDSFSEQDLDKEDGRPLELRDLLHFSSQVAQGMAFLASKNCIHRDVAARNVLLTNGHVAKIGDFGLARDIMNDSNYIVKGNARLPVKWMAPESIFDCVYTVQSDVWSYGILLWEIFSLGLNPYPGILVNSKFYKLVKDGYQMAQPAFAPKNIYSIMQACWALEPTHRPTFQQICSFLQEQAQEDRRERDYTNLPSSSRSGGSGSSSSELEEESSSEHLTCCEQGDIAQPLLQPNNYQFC
Chain of BCR-FMS/BaF3 cells (P07333 20-972 limits assumed, change not shown): as the sequence (P07333 20-972) above

COc1ncc(CNc2ccc(Cc3c[nH]c4ncc(C(F)(F)F)cc34)c(F)n2)cc1F [Compound P-1646, (5-Fluoro-6-methoxy-pyridin-3-ylmethyl)-[6-fluoro-5-(5-trifluoromethyl-1H-pyrrolo[2,3-b]pyridin-3-ylmethyl)-pyridin-2-yl]-amine]
< 0.1 µM: all assays above

Fc1cc(CNc2ncc(Cc3c[nH]c4ncc(Cl)cc34)cn2)cc(C(F)(F)F)c1 [Compound P-2009, [5-(5-Chloro-1H-pyrrolo[2,3-b]pyridin-3-ylmethyl)-pyrimidin-2-yl]-(3-fluoro-5-trifluoromethyl-benzyl)-amine]
< 0.1 µM: all assays above

FC(F)(F)c1cnc2[nH]cc(Cc3ccc(NCc4ccc(C(F)(F)F)nc4)nc3)c2c1 [Compound P-1644, (6-Trifluoromethyl-pyridin-3-ylmethyl)-[5-(5-trifluoromethyl-1H-pyrrolo[2,3-b]pyridin-3-ylmethyl)-pyridin-2-yl]-amine]
< 0.1 µM: all assays above
